The values below come from patent publication EP2934524B1, “PENETHAMATE VETERINARY INJECTABLE FORMULATIONS” (Alleva Animal Health Limited, priority 2012, dated 2014).

Data set [1] can be described thus: Estimated solubility and discolouration of penethamate in organic solvents. The class given is physicochemical. The following applies: Solketal, propylene glycol, glycerol formal and DGMEE. From the text: Solubility of penethamate was estimated at the concentrations of 0.2% w/w and 1.0% w/w, in the following solvents: glycerine, Solketal, polyethylene glycol 200 (PEG 200), diethylene glycol butyl ether (DGBE), propylene glycol (PG), glycofural, diethylene glycol monomethyl ether (DGME), diethylene glycol methyl ethyl ether (DGMEE), dimethyl isosorbide (DMI), 2-pyrrolidone (2-pyrol), N-methyl-2-pyrrolidone (NMP), dimethyl acetamide (DMA), glycerol formal (GF), benzyl alcohol (BA), ethyl lactate and dimethyl sulfoxide (DMSO).

For data set [2] the following is noted: following injection, equivalent dose; cited from earlier work.

For the molecule `CCN(CC)CCOC(=O)[C@@H]1N2C(=O)[C@@H](NC(=O)Cc3ccccc3)[C@H]2SC1(C)C` [penethamate hydriodide, 2-(diethylamino)ethyl (2S,5R,6R)-3,3-dimethyl-7-oxo-6-[(2-phenylacetyl)amino]-4-thia-1-azabicyclo[3.2.0] heptane-2-carboxylate], the “discolouration in organic solvent” value in data set [1] (0.2% w/w and 1.0% w/w in glycerine) is on record as “no discolouration”. Also, in data set [1] (estimated at 0.2% w/w and 1.0% w/w in glycerine), the “solubility in organic solvent” value is listed as “minimal solubility”. Also, the “levels of penicillin in the milk relative to other benzyl-penicillin preparations” value in data set [2] is reported as “about 10 times higher”.
